Test results from article PMC6081437, “The potency of the broad spectrum bacteriocin, bactofencin A, against staphylococci is highly dependent on primary structure, N-terminal charge and disulphide formation” (Scientific Reports, 2018).
Bridge positions count the residues as written; N and C are the ends. Square brackets hold non-standard residues; d marks the D form. Ends that are not written are not given here. Peptide text beside a SMILES is read from it.

Test system: S. aureus DPC5246
Type: cell-based, Staphylococcus aureus
Conditions: for Activity (Minimum Inhibitory Concentration, MIC): DPC5246, pH 6.8; for fold reduction in activity compared with bactofencin A (wild type): S. aureus DPC5246, agar well diffusion MIC
Outline: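 Agar well diffusion assay: peptides in 50 mM sodium phosphate pH 6.8, 1-in-4 dilutions from 1000 µM stock (250 to 0.24 µM) applied to S. aureus DPC5246 indicator plates at 37 °C. MIC is the lowest concentration giving an inhibition zone, in triplicate; concentrations rounded to whole numbers.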

CSCC[C@@H]1NC(=O)CNC(=O)[C@H]([C@@H](C)O)NC(=O)[C@@H]2CCCN2C(=O)[C@H](CCSC)NC(=O)CNC(=O)[C@H](CC(N)=O)NC(=O)[C@H](CC(N)=O)NC(=O)[C@H](Cc2ccc(O)cc2)NC(=O)[C@H](C(C)C)NC(=O)[C@@H](CCCNC(=N)N)NC(=O)[C@@H](NC(=O)[C@H](CCCNC(=N)N)NC(=O)[C@H](Cc2c[nH]cn2)NC(=O)[C@H](CCCCN)NC(=O)[C@H](CCCCN)NC(=O)[C@H](CCCNC(=N)N)NC(=O)[C@@H](N)CCCCN)CSSC[C@@H](C(=O)O)NC(=O)[C@H](Cc2c[nH]c3ccccc23)NC(=O)[C@H](CCCNC(=N)N)NC(=O)[C@H](Cc2ccc(O)cc2)NC1=O [R8Rd] (H-KRKKHRC[dR]VYNNGMPTGMYRWC-OH; disulfide 7-22; N-terminus assumed)
Activity (Minimum Inhibitory Concentration, MIC): 63 µM | fold reduction in activity compared with bactofencin A (wild type): 63 fold

CSCC[C@@H]1NC(=O)CNC(=O)[C@H]([C@@H](C)O)NC(=O)[C@@H]2CCCN2C(=O)[C@H](CCSC)NC(=O)CNC(=O)[C@H](CC(N)=O)NC(=O)[C@H](CC(N)=O)NC(=O)[C@H](Cc2ccc(O)cc2)NC(=O)[C@H](C(C)C)NC(=O)[C@H](CCCNC(=N)N)NC(=O)[C@@H](NC(=O)[C@H](CCCNC(=N)N)NC(=O)[C@H](Cc2c[nH]cn2)NC(=O)[C@H](CCCCN)NC(=O)[C@H](CCCCN)NC(=O)[C@H](CCCNC(=N)N)NC(=O)[C@@H](N)CCCCN)CSSC[C@@H](C(=O)O)NC(=O)[C@H](Cc2c[nH]c3ccccc23)NC(=O)[C@H](C)NC(=O)[C@H](Cc2ccc(O)cc2)NC1=O [R20A] (H-KRKKHRCRVYNNGMPTGMYAWC-OH; disulfide 7-22)
Activity (Minimum Inhibitory Concentration, MIC): 1 µM

CSCC[C@@H]1NC(=O)CNC(=O)[C@H]([C@@H](C)O)NC(=O)[C@@H]2CCCN2C(=O)[C@H](CCSC)NC(=O)CNC(=O)[C@H](CC(N)=O)NC(=O)[C@H](CC(N)=O)NC(=O)[C@H](Cc2ccc(O)cc2)NC(=O)[C@H](C(C)C)NC(=O)[C@H](CCCNC(=N)N)NC(=O)[C@@H](NC(=O)[C@H](CCCNC(=N)N)NC(=O)[C@H](Cc2c[nH]cn2)NC(=O)[C@H](CCCCN)NC(=O)[C@H](CCCCN)NC(=O)[C@H](CCCNC(=N)N)NC(=O)[C@@H](N)CCCCN)CSSC[C@@H](C(=O)O)NC(=O)[C@H](Cc2c[nH]c3ccccc23)NC(=O)[C@@H](CCCNC(=N)N)NC(=O)[C@H](Cc2ccc(O)cc2)NC1=O [R20Rd] (H-KRKKHRCRVYNNGMPTGMY[dR]WC-OH; disulfide 7-22; N-terminus assumed)
Activity (Minimum Inhibitory Concentration, MIC): 4 µM

CSCC[C@@H]1NC(=O)CNC(=O)[C@H](C)NC(=O)[C@@H]2CCCN2C(=O)[C@H](CCSC)NC(=O)CNC(=O)[C@H](CC(N)=O)NC(=O)[C@H](CC(N)=O)NC(=O)[C@H](Cc2ccc(O)cc2)NC(=O)[C@H](C(C)C)NC(=O)[C@H](CCCNC(=N)N)NC(=O)[C@@H](NC(=O)[C@H](CCCNC(=N)N)NC(=O)[C@H](Cc2c[nH]cn2)NC(=O)[C@H](CCCCN)NC(=O)[C@H](CCCCN)NC(=O)[C@H](CCCNC(=N)N)NC(=O)[C@@H](N)CCCCN)CSSC[C@@H](C(=O)O)NC(=O)[C@H](Cc2c[nH]c3ccccc23)NC(=O)[C@H](CCCNC(=N)N)NC(=O)[C@H](Cc2ccc(O)cc2)NC1=O [T16A] (H-KRKKHRCRVYNNGMPAGMYRWC-OH; disulfide 7-22)
Activity (Minimum Inhibitory Concentration, MIC): 16 µM

CSCC[C@@H]1NC(=O)CNC(=O)[C@H]([C@@H](C)O)NC(=O)[C@@H]2CCCN2C(=O)[C@H](CCSC)NC(=O)CNC(=O)[C@H](CC(N)=O)NC(=O)[C@H](CC(N)=O)NC(=O)[C@H](Cc2ccc(O)cc2)NC(=O)[C@H](C)NC(=O)[C@H](CCCNC(=N)N)NC(=O)[C@@H](NC(=O)[C@H](CCCNC(=N)N)NC(=O)[C@H](Cc2c[nH]cn2)NC(=O)[C@H](CCCCN)NC(=O)[C@H](CCCCN)NC(=O)[C@H](CCCNC(=N)N)NC(=O)[C@@H](N)CCCCN)CSSC[C@@H](C(=O)O)NC(=O)[C@H](Cc2c[nH]c3ccccc23)NC(=O)[C@H](CCCNC(=N)N)NC(=O)[C@H](Cc2ccc(O)cc2)NC1=O [V9A] (H-KRKKHRCRAYNNGMPTGMYRWC-OH; disulfide 7-22)
Activity (Minimum Inhibitory Concentration, MIC): 4 µM

CSCC[C@@H]1NC(=O)CNC(=O)[C@H]([C@@H](C)O)NC(=O)[C@@H]2CCCN2C(=O)[C@H](CCSC)NC(=O)CNC(=O)[C@H](CC(N)=O)NC(=O)[C@H](CC(N)=O)NC(=O)[C@H](Cc2ccc(O)cc2)NC(=O)[C@@H](C(C)C)NC(=O)[C@H](CCCNC(=N)N)NC(=O)[C@@H](NC(=O)[C@H](CCCNC(=N)N)NC(=O)[C@H](Cc2c[nH]cn2)NC(=O)[C@H](CCCCN)NC(=O)[C@H](CCCCN)NC(=O)[C@H](CCCNC(=N)N)NC(=O)[C@@H](N)CCCCN)CSSC[C@@H](C(=O)O)NC(=O)[C@H](Cc2c[nH]c3ccccc23)NC(=O)[C@H](CCCNC(=N)N)NC(=O)[C@H](Cc2ccc(O)cc2)NC1=O [V9Vd] (H-KRKKHRCR[dV]YNNGMPTGMYRWC-OH; disulfide 7-22; N-terminus assumed)
Activity (Minimum Inhibitory Concentration, MIC): 63 µM | fold reduction in activity compared with bactofencin A (wild type): 63 fold

CSCC[C@@H]1NC(=O)CNC(=O)[C@H]([C@@H](C)O)NC(=O)[C@@H]2CCCN2C(=O)[C@H](CCSC)NC(=O)CNC(=O)[C@H](CC(N)=O)NC(=O)[C@H](CC(N)=O)NC(=O)[C@H](Cc2ccc(O)cc2)NC(=O)[C@H](C(C)C)NC(=O)[C@H](CCCNC(=N)N)NC(=O)[C@@H](NC(=O)[C@H](CCCNC(=N)N)NC(=O)[C@H](Cc2c[nH]cn2)NC(=O)[C@H](CCCCN)NC(=O)[C@H](CCCCN)NC(=O)[C@H](CCCNC(=N)N)NC(=O)[C@@H](N)CCCCN)CSSC[C@@H](C(=O)O)NC(=O)[C@H](C)NC(=O)[C@H](CCCNC(=N)N)NC(=O)[C@H](Cc2ccc(O)cc2)NC1=O [W21A] (H-KRKKHRCRVYNNGMPTGMYRAC-OH; disulfide 7-22)
Activity (Minimum Inhibitory Concentration, MIC): 1 µM

CSCC[C@@H]1NC(=O)CNC(=O)[C@H]([C@@H](C)O)NC(=O)[C@@H]2CCCN2C(=O)[C@H](CCSC)NC(=O)CNC(=O)[C@H](CC(N)=O)NC(=O)[C@H](CC(N)=O)NC(=O)[C@H](Cc2ccc(O)cc2)NC(=O)[C@H](C(C)C)NC(=O)[C@H](CCCNC(=N)N)NC(=O)[C@@H](NC(=O)[C@H](CCCNC(=N)N)NC(=O)[C@H](Cc2c[nH]cn2)NC(=O)[C@H](CCCCN)NC(=O)[C@H](CCCCN)NC(=O)[C@H](CCCNC(=N)N)NC(=O)[C@@H](N)CCCCN)CSSC[C@@H](C(=O)O)NC(=O)[C@@H](Cc2c[nH]c3ccccc23)NC(=O)[C@H](CCCNC(=N)N)NC(=O)[C@H](Cc2ccc(O)cc2)NC1=O [W21Wd] (H-KRKKHRCRVYNNGMPTGMYR[dW]C-OH; disulfide 7-22; N-terminus assumed)
Activity (Minimum Inhibitory Concentration, MIC): 4 µM

CSCC[C@@H]1NC(=O)CNC(=O)[C@H]([C@@H](C)O)NC(=O)[C@@H]2CCCN2C(=O)[C@H](CCSC)NC(=O)CNC(=O)[C@H](CC(N)=O)NC(=O)[C@H](CC(N)=O)NC(=O)[C@H](C)NC(=O)[C@H](C(C)C)NC(=O)[C@H](CCCNC(=N)N)NC(=O)[C@@H](NC(=O)[C@H](CCCNC(=N)N)NC(=O)[C@H](Cc2c[nH]cn2)NC(=O)[C@H](CCCCN)NC(=O)[C@H](CCCCN)NC(=O)[C@H](CCCNC(=N)N)NC(=O)[C@@H](N)CCCCN)CSSC[C@@H](C(=O)O)NC(=O)[C@H](Cc2c[nH]c3ccccc23)NC(=O)[C@H](CCCNC(=N)N)NC(=O)[C@H](Cc2ccc(O)cc2)NC1=O [Y10A] (H-KRKKHRCRVANNGMPTGMYRWC-OH; disulfide 7-22)
Activity (Minimum Inhibitory Concentration, MIC): 4 µM

CSCC[C@@H]1NC(=O)CNC(=O)[C@H]([C@@H](C)O)NC(=O)[C@@H]2CCCN2C(=O)[C@H](CCSC)NC(=O)CNC(=O)[C@H](CC(N)=O)NC(=O)[C@H](CC(N)=O)NC(=O)[C@@H](Cc2ccc(O)cc2)NC(=O)[C@H](C(C)C)NC(=O)[C@H](CCCNC(=N)N)NC(=O)[C@@H](NC(=O)[C@H](CCCNC(=N)N)NC(=O)[C@H](Cc2c[nH]cn2)NC(=O)[C@H](CCCCN)NC(=O)[C@H](CCCCN)NC(=O)[C@H](CCCNC(=N)N)NC(=O)[C@@H](N)CCCCN)CSSC[C@@H](C(=O)O)NC(=O)[C@H](Cc2c[nH]c3ccccc23)NC(=O)[C@H](CCCNC(=N)N)NC(=O)[C@H](Cc2ccc(O)cc2)NC1=O [Y10Yd] (H-KRKKHRCRV[dY]NNGMPTGMYRWC-OH; disulfide 7-22; N-terminus assumed)
Activity (Minimum Inhibitory Concentration, MIC): > 1000 µM

CSCC[C@@H]1NC(=O)CNC(=O)[C@H]([C@@H](C)O)NC(=O)[C@@H]2CCCN2C(=O)[C@H](CCSC)NC(=O)CNC(=O)[C@H](CC(N)=O)NC(=O)[C@H](CC(N)=O)NC(=O)[C@H](Cc2ccc(O)cc2)NC(=O)[C@H](C(C)C)NC(=O)[C@H](CCCNC(=N)N)NC(=O)[C@@H](NC(=O)[C@H](CCCNC(=N)N)NC(=O)[C@H](Cc2c[nH]cn2)NC(=O)[C@H](CCCCN)NC(=O)[C@H](CCCCN)NC(=O)[C@H](CCCNC(=N)N)NC(=O)[C@@H](N)CCCCN)CSSC[C@@H](C(=O)O)NC(=O)[C@H](Cc2c[nH]c3ccccc23)NC(=O)[C@H](CCCNC(=N)N)NC(=O)[C@H](C)NC1=O [Y19A] (H-KRKKHRCRVYNNGMPTGMARWC-OH; disulfide 7-22)
Activity (Minimum Inhibitory Concentration, MIC): 1 µM

CSCC[C@@H]1NC(=O)CNC(=O)[C@H]([C@@H](C)O)NC(=O)[C@@H]2CCCN2C(=O)[C@H](CCSC)NC(=O)CNC(=O)[C@H](CC(N)=O)NC(=O)[C@H](CC(N)=O)NC(=O)[C@H](Cc2ccc(O)cc2)NC(=O)[C@H](C(C)C)NC(=O)[C@H](CCCNC(=N)N)NC(=O)[C@@H](NC(=O)[C@H](CCCNC(=N)N)NC(=O)[C@H](Cc2c[nH]cn2)NC(=O)[C@H](CCCCN)NC(=O)[C@H](CCCCN)NC(=O)[C@H](CCCNC(=N)N)NC(=O)[C@@H](N)CCCCN)CSSC[C@@H](C(=O)O)NC(=O)[C@H](Cc2c[nH]c3ccccc23)NC(=O)[C@H](CCCNC(=N)N)NC(=O)[C@@H](Cc2ccc(O)cc2)NC1=O [Y19Yd] (H-KRKKHRCRVYNNGMPTGM[dY]RWC-OH; disulfide 7-22; N-terminus assumed)
Activity (Minimum Inhibitory Concentration, MIC): 63 µM | fold reduction in activity compared with bactofencin A (wild type): 63 fold

KRKKHRARVYNNGMPTGMYRWA [C7A-C22A]
Activity (Minimum Inhibitory Concentration, MIC): 16 µM | fold reduction in activity compared with bactofencin A (wild type): 16 fold

KRKKHRARVYNNGMPTGMYRWC-OH [C7A]
Activity (Minimum Inhibitory Concentration, MIC): 16 µM | fold reduction in activity compared with bactofencin A (wild type): 16 fold

KRKKHRCRVYNNGMPTGMYRWA-OH [C22A]
Activity (Minimum Inhibitory Concentration, MIC): 63 µM | fold reduction in activity compared with bactofencin A (wild type): 63 fold
